Patent USRE39420E1, “1,2-Diphenylpyrrole derivatives, their preparation and their therapeutic uses” (Sankyo Company, Limited, priority 1996, dated 2006)

Columns and labels:
[1] = biological target: T1, Cyclooxygenase-1 from Ram Seminal Vesicle Microsomes (RSVM) (Ovis aries, UniProt P05979); test: Inhibitory activity on cyclooxygenase-1 from ram seminal vesicle microsomes (PGE2 ELISA); assay type: biochemical; conditions: PGE2 formation, read-out: Inhibitory Effect on COX-1[IC50(μM)]
T1 construct: ram seminal vesicles were homogenised by a blender; from tissue; host or cells: ram seminal vesicles (microsomes)
T1 sequence (P05979 25-600): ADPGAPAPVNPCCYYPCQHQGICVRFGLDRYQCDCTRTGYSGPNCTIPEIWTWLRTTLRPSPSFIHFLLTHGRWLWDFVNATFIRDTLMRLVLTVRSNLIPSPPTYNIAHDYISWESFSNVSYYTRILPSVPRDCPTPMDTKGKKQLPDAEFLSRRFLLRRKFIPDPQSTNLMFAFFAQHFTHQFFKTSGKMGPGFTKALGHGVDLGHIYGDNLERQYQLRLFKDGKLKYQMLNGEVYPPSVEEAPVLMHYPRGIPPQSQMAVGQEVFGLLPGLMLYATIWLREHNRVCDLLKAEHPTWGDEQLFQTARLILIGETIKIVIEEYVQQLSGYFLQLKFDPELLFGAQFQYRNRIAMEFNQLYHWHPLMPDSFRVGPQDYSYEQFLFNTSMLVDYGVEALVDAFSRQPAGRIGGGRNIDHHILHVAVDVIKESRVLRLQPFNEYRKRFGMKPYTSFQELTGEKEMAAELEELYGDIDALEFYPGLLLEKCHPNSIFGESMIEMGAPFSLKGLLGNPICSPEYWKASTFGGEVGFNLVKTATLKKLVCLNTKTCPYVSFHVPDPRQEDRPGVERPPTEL
Method: (§1) In order to prepare cyclooxygenase-1 (COX-1) microsomes, ram seminal vesicles were homogenised by a blender. To prepare cyclooxygenase-2 (COX-2) microsomes, an expression vector which contains the human COX-2 gene was introduced into COS cells. The cells were homogenised by sonication after 66 hours cultivation. Microsomes were then prepared in accordance with conventional methods. Enzyme activity was assayed as follows. The assay mixture contained 10 μl of COX-1 or COX-2 microsomes (5 to 15 μg), 2 μl of sample dissolved in dimethyl sulfoxide, 50 μl of 200 mM Tris (pH 7.6), 10 μl of 20 mM reduced glutathione, 10 μl of 10 mM epinephrine, and 15.5 μl of distilled water. After preincubation at 37° C. for 15 minutes, 2.5 μl of 10 μM arachidonic acid (dissolved in ethanol) were then added to the mixture (final volume of 100 μl) and allowed to react at 37° C. for 30 minutes. The final dimethyl sulfoxide and ethanol concentrations were 2% and 2.5%, respectively. To the reaction mixture were then added 15 μl of ice-cooled 0.2M HCl to stop the reaction, and the mixture was cooled at 4° C. for 5 minutes. 15 μl of a 0.2M aqueous solution of sodium hydroxide were then added to the reaction mixture to neutralise the pH. The amount of PGE2, in the reaction mixture was measured using a commercially available ELISA kit (Cayman). IC50 was calculated from the regression line determined by the inhibition rates of PGE2 formation and the concentrations of the compound.

[2] = biological target: T2, Human Recombinant Cyclooxygenase-2 (Homo sapiens, UniProt P35354); test: Inhibitory activity on human recombinant cyclooxygenase-2 microsomes from COS cells (PGE2 ELISA); assay type: biochemical; conditions: for IC50: human recombinant COX-2 microsomes, PGE2 formation, read-out: Inhibitory Effect on COX-2 [IC50 (μM)]
T2 construct: made in house; host or cells: COS cells (transient expression; microsomes prepared after 66 hours)
T2 sequence (P35354 18-604): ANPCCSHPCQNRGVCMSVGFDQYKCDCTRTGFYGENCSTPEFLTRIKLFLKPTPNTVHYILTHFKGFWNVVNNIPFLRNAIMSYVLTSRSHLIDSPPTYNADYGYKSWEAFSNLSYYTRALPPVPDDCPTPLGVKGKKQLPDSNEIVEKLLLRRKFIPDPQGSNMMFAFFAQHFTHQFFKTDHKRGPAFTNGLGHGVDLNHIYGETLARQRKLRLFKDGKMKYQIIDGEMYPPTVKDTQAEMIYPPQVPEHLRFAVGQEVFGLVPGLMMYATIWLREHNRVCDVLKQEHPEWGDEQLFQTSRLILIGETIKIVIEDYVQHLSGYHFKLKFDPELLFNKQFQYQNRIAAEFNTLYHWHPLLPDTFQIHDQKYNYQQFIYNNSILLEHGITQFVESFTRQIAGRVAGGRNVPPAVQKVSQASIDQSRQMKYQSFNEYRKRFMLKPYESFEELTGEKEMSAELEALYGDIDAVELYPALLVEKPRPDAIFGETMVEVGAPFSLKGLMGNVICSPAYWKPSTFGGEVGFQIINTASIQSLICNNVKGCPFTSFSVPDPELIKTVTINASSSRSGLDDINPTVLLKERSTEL
Method: In order to prepare cyclooxygenase-1 (COX-1) microsomes, ram seminal vesicles were homogenised by a blender. To prepare cyclooxygenase-2 (COX-2) microsomes, an expression vector which contains the human COX-2 gene was introduced into COS cells. The cells were homogenised by sonication after 66 hours cultivation. Microsomes were then prepared in accordance with conventional methods.
Enzyme activity was assayed as follows.
as §1, with “The” for “In order to prepare cyclooxygenase-1 (COX-1) microsomes, ram seminal vesicles were homogenised by a blender. To prepare cyclooxygenase-2 (COX-2) microsomes, an expression vector which contains the human COX-2 gene was introduced into COS cells. The cells were homogenised by sonication after 66 hours cultivation. Microsomes were then prepared in accordance with conventional methods. Enzyme activity was assayed as follows. The”

[3] = tested on: Carrageenan-induced Paw Edema in rats; test: Carrageenan-induced paw edema test; assay type: in vivo, Wistar-Imamichi rats; conditions: Rattus norvegicus, oral, 3 hours after carrageenan, read-out: Inhibition Rate (%)
Procedure, shortened: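 Male Wistar-Imamichi rats (6 weeks, 110-120 g), fasted 16 h, dosed orally 30 min before subplantar injection of 1% carrageenan into right hind paw. Paw volume measured by plethysmometer before dosing and 3 h after carrageenan; edema intensity = (volume at 3 h/volume before injection) − 1.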

Row | IC50 [1] [µM] | IC50 [2] [µM] | Selectivity (COX-1/COX-2) ([2]; ratio of IC50 COX-1/COX-2) | SMILES | inhibition in vivo at 50 mg/kg [3] [%]
1 | > 100 | > 100 | – | Cc1ccc(-c2ccccc2)n1-c1ccc(S(N)(=O)=O)cc1 [Compound A, 5-methyl-2-phenyl-1-(4-sulfamoylphenyl)pyrrole, reference compound] | 14
2 | > 100 | 0.016 | >6250 | COc1ccc(-c2cc(C)cn2-c2ccc(S(N)(=O)=O)cc2)cc1 [Example 52, 2-(4-Methoxyphenyl)-4-methyl-1-(4-sulfamoylphenyl)pyrrole] | 65
